US20220401407A1, “REGULATION OF THE SLEEP/WAKE CYCLE USING C[…]” (Demetrix, Inc., priority 2021, published 2022)
“Also recorded” adds a separate entry of the source.

How the values were obtained:
Format in all cases: cell-based
HCRTR1 [1] = molecular target: T1, HCRTR1 (Homo sapiens, UniProt O43613); assay: PathHunter β-Arrestin GPCR agonist assay, HCRTR1; parameters: concentration or dose not given beside the values; conditions: agonist mode; Orexin A as control
T1 sequence (O43613 1-425): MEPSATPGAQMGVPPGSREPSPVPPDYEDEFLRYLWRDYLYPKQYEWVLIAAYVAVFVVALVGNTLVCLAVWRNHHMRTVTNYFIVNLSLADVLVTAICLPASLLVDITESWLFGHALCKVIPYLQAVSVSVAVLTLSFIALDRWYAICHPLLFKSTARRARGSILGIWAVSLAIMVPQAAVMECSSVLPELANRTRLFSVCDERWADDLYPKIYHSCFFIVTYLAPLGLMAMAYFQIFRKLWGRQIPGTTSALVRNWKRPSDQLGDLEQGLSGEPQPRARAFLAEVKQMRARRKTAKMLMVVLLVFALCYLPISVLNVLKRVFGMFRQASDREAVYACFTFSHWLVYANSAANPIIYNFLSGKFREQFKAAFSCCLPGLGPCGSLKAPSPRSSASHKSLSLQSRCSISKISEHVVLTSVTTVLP
Description: (§1) To evaluate the role specific cannabinoid compounds may play on the sleep/wake cycle, a GPCR reactivity assay was performed to determine the reactivity of 19 cannabinoid compounds to the orexin receivers HCRTR1 and HCRTR2. The evaluated cannabinoid compounds were: CBN, THCV, CBDVA, CBG, CBL, CBC, CBDV, CBDA, CBD, CBGA, (+)-CBD, CBG-C4, CBD-C1, CBD-C2, CBGV, CBGA-C4, CBGVA, CBCA, and CBLA. Orexin A was used as the control for HCRTR1 and HCRTR2.
(§2) To perform the GPCR reactivity assay, a commercial GPCR assay, PathHunter® β-Arrestin from Eurofins DiscoverX Products (Fremont, Calif.), was used. […] At activation of the GPCR receptor and recruitment of β-arrestin, complementation of the peptide fragments occurs and restores β-galactosidase activity. The amount of β-galactosidase activity is then measurable using chemiluminescent reagents.
(§3) A total of four assays were run. Agonist assays were run for each of HCRTR1 and HCRTR2 and antagonist assays were run for HCRTR1 and HCRTR2. In each of the two agonist assays, PathHunter® cell lines were removed from a freezer stock and seeded at a volume of 20 μL into white walled, 384-well microplates and incubated at 37° C. Each cell was incubated with a sample to induce a response and then diluted to generate a 5× sample in assay buffer. 5 μL of the 5× sample was then added to cells and incubated at 37° C. for 90 or 180 minutes. The final assay concentration was 1%. The assay signal was generated through addition of 12.5 μL or 15 μL (50% V/V) of a detection reagent cocktail followed by a one hour incubation time at room temperature. Microplates were read following signal generation with a PerkinElmer Envision™ (PerkinElmer Inc., Waltham, Mass.) for chemiluminescent signal detection. Reactivity was analyzed using the CBIS data analysis suite (ChemInnovation, CA) where RLU refers to the raw measured values. The percent activity was then calculated using the formula: % Activity=100%*(mean RLU of test sample−mean RLU of control)/(mean max control ligand−mean RLU of vehicle control).
(§4) For agonist activity, the percent activity is depicted while for antagonist activity, the percent inhibition is depicted.

HCRTR2 [2] = molecular target: T2, HCRTR2 (Homo sapiens, UniProt O43614); assay: PathHunter β-Arrestin GPCR agonist assay, HCRTR2; parameters: concentration or dose not given beside the values; conditions: agonist mode; Orexin A as control
T2 sequence (O43614 1-444): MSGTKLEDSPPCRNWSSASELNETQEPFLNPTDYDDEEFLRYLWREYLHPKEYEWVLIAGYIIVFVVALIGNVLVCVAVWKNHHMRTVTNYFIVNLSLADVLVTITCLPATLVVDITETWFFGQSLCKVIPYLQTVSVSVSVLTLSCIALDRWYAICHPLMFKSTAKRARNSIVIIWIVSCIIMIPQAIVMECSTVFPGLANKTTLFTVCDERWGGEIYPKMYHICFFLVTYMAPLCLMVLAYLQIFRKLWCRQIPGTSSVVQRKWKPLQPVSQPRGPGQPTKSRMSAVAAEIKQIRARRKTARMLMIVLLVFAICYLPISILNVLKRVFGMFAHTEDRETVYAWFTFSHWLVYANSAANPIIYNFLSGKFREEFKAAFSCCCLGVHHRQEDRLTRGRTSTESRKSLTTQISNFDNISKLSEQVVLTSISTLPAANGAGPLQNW
Description: as §1, §2, §3, §4

HCRTR1 [3] = molecular target: T1, HCRTR1; assay: PathHunter β-Arrestin GPCR antagonist assay, HCRTR1; conditions: for HCRTR1 (Antagonist) percent inhibition: antagonist mode, agonist challenge at EC80
Description: as §1, §2
(§5) In each of the two antagonist assays, PathHunter® cell lines were removed from a freezer stock and seeded at a volume of 20 μL into white walled, 384-well microplates and incubated at 37° C. Each cell was pre-incubated with an antagonist followed by an agonist challenge at the EC80 concentration. Cells were then diluted to generate a 5× sample in assay buffer. 5 μL of the 5× sample was then added to cells and incubated at 37° C. for 30 minutes. Finally, 5 μL of 6×EC80 agonist in assay buffer were added to the cells and incubated at 37° C. for 90 minutes or 180 minutes. The assay signal was generated through addition of 12.5 μL or 15 μL (50% V/V) of a detection reagent cocktail followed by a one hour incubation time at room temperature. Microplates were read following signal generation with a PerkinElmer Envision™ (PerkinElmer Inc., Waltham, Mass.) for chemiluminescent signal detection. Reactivity was analyzed using the CBIS data analysis suite (ChemInnovation, CA) where RLU refers to the raw measured values. The percent inhibition was calculated using the formula: % Inhibition=100%*(1−mean RLU of test sample−mean RLU of control)/(mean RLU of EC80 control−mean RLU of vehicle control).
as §4

HCRTR2 [4] = molecular target: T2, HCRTR2; assay: PathHunter β-Arrestin GPCR antagonist assay, HCRTR2; conditions: for HCRTR2 (Antagonist) percent inhibition: antagonist mode, agonist challenge at EC80
Description: as §1, §2, §5, §4

dopamine receptor DRD5 = dopamine receptor DRD5 (Homo sapiens, UniProt P21918); assay: PathHunter β-Arrestin GPCR agonist assay, DRD5; parameters: DRD5 (Agonist) percent activity: concentration or dose not given beside the values; conditions: for DRD5 (Agonist) percent activity: agonist mode, dopamine as control
Text: as §2, §3
Table 2 depicts the results of evaluating the cannabinoid compounds to act as an agonist for the dopamine receptor DRD5. The same experimental procedure as used for HCRTR1 and HCRTR2 agonist testing (Table 1) was followed with the substitution of dopamine as the control for the DRD5 receptor.

dopamine receptor DRD5, sequence (P21918 whole entry): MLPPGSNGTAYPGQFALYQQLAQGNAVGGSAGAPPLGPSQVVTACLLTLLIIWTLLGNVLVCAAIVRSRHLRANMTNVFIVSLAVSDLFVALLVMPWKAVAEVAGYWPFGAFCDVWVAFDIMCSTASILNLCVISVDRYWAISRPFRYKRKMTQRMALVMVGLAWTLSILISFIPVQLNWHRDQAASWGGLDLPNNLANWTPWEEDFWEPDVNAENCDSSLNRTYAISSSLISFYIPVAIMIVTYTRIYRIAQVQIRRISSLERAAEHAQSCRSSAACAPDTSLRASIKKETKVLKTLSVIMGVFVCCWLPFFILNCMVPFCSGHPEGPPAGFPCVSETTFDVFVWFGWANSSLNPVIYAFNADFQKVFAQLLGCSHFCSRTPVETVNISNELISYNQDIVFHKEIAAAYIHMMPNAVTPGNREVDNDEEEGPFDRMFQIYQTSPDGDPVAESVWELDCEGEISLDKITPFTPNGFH

Compound | HCRTR1 (Agonist) percent activity (HCRTR1 [1]) | HCRTR2 (Agonist) percent activity (HCRTR2 [2]) | antagonist effect on HCRTR1 (in words) (HCRTR1 [3]) | HCRTR1 (Antagonist) percent inhibition (HCRTR1 [3]) | antagonist effect on HCRTR2 (in words) (HCRTR2 [4]) | HCRTR2 (Antagonist) percent inhibition (HCRTR2 [4]) | DRD5 (Agonist) percent activity (dopamine receptor DRD5) | DRD5 agonist effect (in words) (dopamine receptor DRD5)
CCCc1cc(O)c(C/C=C(\C)CCC=C(C)C)c(O)c1 [CBGV, cannabigerivarin] | 4% | 2% | demonstrate activity against only HCRTR1; also recorded: acted as antagonists | 44% | demonstrate activity against only HCRTR1; also recorded: did not act as antagonists | 12% | 6% | –
CCCc1cc(O)c2c(c1)OC(C)(C)[C@@H]1CCC(C)=C[C@@H]21 [THCV, tetrahydrocannabivarin] | 2% | 6% | antagonist effect; also recorded: acted as an antagonist | 89% | antagonist effect; also recorded: acted as an antagonist | 89% | 52% | DRD5 agonists; also recorded: stronger agonist effects
CCCc1cc(O)c(C/C=C(\C)CCC=C(C)C)c(O)c1C(=O)O [CBGVA, cannabigerovarinic acid] | 0% | 1% | do not demonstrate meaningful activity | 3% | do not demonstrate meaningful activity | 12% | 0% | –
C=C(C)[C@@H]1CCC(C)=C[C@H]1c1c(O)cc(CCC)c(C(=O)O)c1O [CBDVA, cannabidivarinic acid] | 0% | 0% | do not demonstrate meaningful activity | 7% | do not demonstrate meaningful activity | 10% | 4% | –
C=C(C)[C@@H]1CCC(C)=C[C@H]1c1c(O)cc(CC)cc1O [CBD-C2, cannabidol-C2] | 2% | 1% | do not demonstrate meaningful activity | 20% | do not demonstrate meaningful activity | 13% | 1% | –
(+)-cannabidiol [(+)-CBD] | 3% | 8% | antagonist effect; also recorded: acted as an antagonist | 97% | antagonist effect; also recorded: acted as an antagonist | 80% | 9% | –
C=C(C)[C@@H]1CCC(C)=C[C@H]1c1c(O)cc(CCC)cc1O [CBDV, cannabidivarin] | 0% | 0% | demonstrate activity against only HCRTR1; also recorded: acted as antagonists | 61% | demonstrate activity against only HCRTR1; also recorded: did not act as antagonists | 18% | 7% | –
CCCCc1cc(O)c(CC=C(C)CCC=C(C)C)c(O)c1 [CBG-C4, cannabigerol butyl] | 4% | 6% | antagonist effect; also recorded: acted as an antagonist | 84% | antagonist effect; also recorded: acted as an antagonist | 45% | 6% | –
CCCCCc1cc(O)c(C/C=C(\C)CCC=C(C)C)c(O)c1C(=O)O [CBGA, cannabigerolic acid] | 1% | 1% | do not demonstrate meaningful activity | 8% | do not demonstrate meaningful activity | 14% | 0% | –
CCCCCc1cc(O)c2c(c1)OC1(C)CCC3C1C2C3(C)C (stereo not drawn) [CBL, cannabicyclol] | 2% | 5% | antagonist effect; also recorded: acted as an antagonist | 96% | antagonist effect; also recorded: acted as an antagonist | 93% | 37% | DRD5 agonists; also recorded: stronger agonist effects
